Source: patent publication US20090181896A1, “Use of Natriuretic Peptide Receptor Antagonists to Treat Ocular, Otic and Nasal Edemetous Conditions” (ALCON RESEARCH, LTD., priority 2006, published 2009)

Assays:
Assay type in all cases: cell-based
[1] = target: T1, Type-B natriuretic peptide receptor in human corneal epithelial cells (Homo sapiens, UniProt P20594); assay: Natriuretic peptide-stimulated cGMP production (guanylyl cyclase activity, EIA) in human corneal epithelial cells; details: cGMP production via type-B receptor
T1 construct: primary human corneal epithelial cells (P-CEPI) were isolated from human donor eyes; endogenous in cells; host or cells: primary human corneal epithelial cells (P-CEPI) and SV40-immortalized human corneal epithelial cells (CEPI-17-CL4)
T1 sequence (P20594 23-1047): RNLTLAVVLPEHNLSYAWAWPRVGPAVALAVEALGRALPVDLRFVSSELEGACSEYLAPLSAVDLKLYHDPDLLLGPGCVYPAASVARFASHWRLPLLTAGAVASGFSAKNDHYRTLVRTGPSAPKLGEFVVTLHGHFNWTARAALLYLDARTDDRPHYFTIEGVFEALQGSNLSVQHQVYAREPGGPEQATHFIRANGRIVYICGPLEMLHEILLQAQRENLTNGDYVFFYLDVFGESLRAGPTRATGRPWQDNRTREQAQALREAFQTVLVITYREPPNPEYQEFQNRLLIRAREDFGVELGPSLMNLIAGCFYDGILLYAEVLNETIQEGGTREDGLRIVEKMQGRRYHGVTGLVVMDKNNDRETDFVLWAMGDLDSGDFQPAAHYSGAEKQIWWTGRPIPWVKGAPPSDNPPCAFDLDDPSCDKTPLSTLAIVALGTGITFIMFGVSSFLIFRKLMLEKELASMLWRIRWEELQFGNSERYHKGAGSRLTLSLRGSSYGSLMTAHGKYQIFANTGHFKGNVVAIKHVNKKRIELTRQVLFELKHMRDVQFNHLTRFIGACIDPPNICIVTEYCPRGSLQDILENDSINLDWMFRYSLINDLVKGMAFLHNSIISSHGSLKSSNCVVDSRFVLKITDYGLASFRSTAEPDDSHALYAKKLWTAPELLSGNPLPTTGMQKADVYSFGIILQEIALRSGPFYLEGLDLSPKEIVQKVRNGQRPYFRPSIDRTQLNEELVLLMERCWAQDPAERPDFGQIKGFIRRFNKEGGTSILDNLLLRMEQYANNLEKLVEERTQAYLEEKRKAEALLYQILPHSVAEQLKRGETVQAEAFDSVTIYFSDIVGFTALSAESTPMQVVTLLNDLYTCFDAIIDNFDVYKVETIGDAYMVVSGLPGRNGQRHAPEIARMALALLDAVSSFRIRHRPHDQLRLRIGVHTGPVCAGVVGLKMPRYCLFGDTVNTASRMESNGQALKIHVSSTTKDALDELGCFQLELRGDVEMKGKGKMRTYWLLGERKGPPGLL
Description: Thus, primary human corneal epithelial cells (P-CEPI) were isolated from human donor eyes ≦24 hr postmortem and were cultured in EpiLife medium (Cascade Biologics, Portland, Oreg.) containing 1% human corneal growth supplement, 100 u/ml penicillin G, 100 mg/ml streptomycin sulfate. Culture plates were coated with fibronectin to help the cells adhere to the bottom of the plates. […]
In brief, compounds of interest were diluted in ethanol so that the final ethanol concentration was 1%, a concentration well tolerated by the cells. […] Finally, ice-cold 0.1 M sodium acetate (220 ml, pH 11.5-12.0) was added to neutralize the samples before analysis of cGMP by an enzyme immunoassay (EIA) kit. cGMP production in the cells was measured using the EIA kit purchased from Amersham Pharmacia Biotech (Piscataway, N.J.). […] Data were analyzed using a non-linear, iterative curve-fitting computer program (IDBS, Surrey, UK) and Origin software package (Microcal Software, Inc., Northampton, Mass.) (Sharif et al. 1996; Crider et al. 2003). […]

[2] = target: T2, Type-A natriuretic peptide receptor in human conjunctival epithelial cells (Chang cells) (Homo sapiens, UniProt P16066); assay: Natriuretic peptide-stimulated cGMP production (guanylyl cyclase activity, EIA) in human conjunctival epithelial cells (Chang cells); details: for Agonist character in words: cGMP production; for Intrinsic Activity (Emax; % Max. Response): cGMP production via type-A receptor
T2 construct: the most relevant cells are Chang cells (Clone 1-5C-4 Wong-Kilbourne Derivative); These cells were obtained from ATCC; host or cells: Chang cells (Clone 1-5C-4 Wong-Kilbourne Derivative), human conjunctival epithelial cells
T2 sequence (P16066 33-1061): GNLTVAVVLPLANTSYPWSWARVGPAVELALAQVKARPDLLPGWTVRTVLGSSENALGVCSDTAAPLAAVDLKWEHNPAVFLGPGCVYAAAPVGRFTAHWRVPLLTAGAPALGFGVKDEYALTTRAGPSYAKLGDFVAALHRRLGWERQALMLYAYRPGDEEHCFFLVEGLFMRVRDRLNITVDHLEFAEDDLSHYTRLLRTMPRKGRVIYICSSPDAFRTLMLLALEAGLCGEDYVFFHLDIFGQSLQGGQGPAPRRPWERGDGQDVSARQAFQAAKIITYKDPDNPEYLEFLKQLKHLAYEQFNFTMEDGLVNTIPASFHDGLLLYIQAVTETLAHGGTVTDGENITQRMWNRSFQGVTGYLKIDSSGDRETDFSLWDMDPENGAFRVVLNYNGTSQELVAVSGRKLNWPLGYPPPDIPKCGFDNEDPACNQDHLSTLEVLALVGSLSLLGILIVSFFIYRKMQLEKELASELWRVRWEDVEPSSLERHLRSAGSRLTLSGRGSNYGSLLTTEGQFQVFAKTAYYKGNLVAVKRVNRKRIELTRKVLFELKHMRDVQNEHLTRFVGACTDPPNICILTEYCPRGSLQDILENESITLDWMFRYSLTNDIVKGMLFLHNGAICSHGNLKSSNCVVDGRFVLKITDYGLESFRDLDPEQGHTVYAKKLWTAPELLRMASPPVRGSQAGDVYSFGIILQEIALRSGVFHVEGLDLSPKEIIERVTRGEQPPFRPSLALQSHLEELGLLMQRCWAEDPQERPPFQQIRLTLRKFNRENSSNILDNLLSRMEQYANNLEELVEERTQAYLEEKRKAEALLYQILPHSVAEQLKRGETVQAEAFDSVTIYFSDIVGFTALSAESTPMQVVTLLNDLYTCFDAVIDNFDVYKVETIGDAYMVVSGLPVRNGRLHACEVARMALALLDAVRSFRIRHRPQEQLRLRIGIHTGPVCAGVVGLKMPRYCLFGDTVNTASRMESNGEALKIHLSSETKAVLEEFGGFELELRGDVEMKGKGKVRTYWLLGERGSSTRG
Description: These cells were obtained from ATCC (Manassas, Va.) and cultured in medium 199, containing 10% fetal bovine serum and […] Gentamicin. (obtained from Gibco/Invitrogen; Carlsbad, Calif.).
Cells were seeded in 48-wells culture plates. On reaching confluence, the cells were rinsed twice with 0.5 ml Dulbeco's modified Eagle's medium (DMEM)/F-12. […] Natriuretic peptides (American Peptide Co. Inc., Sunnyvale, Calif.; Peninsula Labs. San Carlos, Calif.) were then added at the end of this period and the reaction was allowed to proceed for another 15 minutes at 23° C. After aspiration of the reaction medium, ice cold 0.1 M acetic acid ([…], pH 3.5) was added for the termination of cGMP synthesis and cell lysis. Finally, ice-cold 0.1 M sodium acetate ([…], pH 11.5-12.0) was added to neutralize the samples before analysis of cGMP by an enzyme immunoassay (EIA) kit. cGMP production in the cells was measured using the EIA kit purchased from Amersham Pharmacia Biotech (Piscataway, N.J.). This assay was conducted according to the package insert in an automated manner using a robotic workstation (Biomek 2000; Beckman Instrument, Fullerton, Calif.) (Sharif et al. Characterization of the ocular anti-allergic and anti-histaminic effects of Olopatadine (AL-4943A), a novel drug for treating ocular allergic diseases. J. Pharmacology & Experimental Therapeutics 278, 1251-1260, 1996; Crider et al. Pharmacological characterization of serotonin receptor (5HT7) stimulating cAMP production in human corneal epithelial cells. Invest. Ophthalmol. Vis. Sci. 44: 4837-4844, 2003). Data were analyzed using a non-linear, iterative curve-fitting computer program (IDBS, Surrey, UK) and Origin software package (Microcal Software, Inc., Northampton, Mass.) (Sharif et al. 1996; Crider et al. 2003).

[3] = target: T3, type-B natriuretic peptide receptor in immortalized human corneal epithelial (CEPI-17-CL4) cells (Homo sapiens, UniProt P20594); assay: Antagonism of CNP fragment-induced cGMP production in immortalized human corneal epithelial (CEPI-17-CL4) cells; details: mean ± SEM
T3 construct: primary human corneal epithelial cells (P-CEPI) were isolated from human donor eyes; endogenous in cells; host or cells: primary human corneal epithelial cells (P-CEPI) and SV40-immortalized human corneal epithelial cells (CEPI-17-CL4)
T3 sequence (P20594 23-1047): T1 sequence (P20594 23-1047)

## C-type natriuretic peptide [CNP]
[1]
  Intrinsic Activity (Emax; % Max. Response): 100%
[2]
  Agonist character in words: weak partial agonist
  Intrinsic Activity (Emax; % Max. Response): 26%

## brain natriuretic peptide [BNP]
[1]
  Intrinsic Activity (Emax; % Max. Response): 50.2%
[2]
  Agonist character in words: potent full agonists
  Intrinsic Activity (Emax; % Max. Response): 94%

## O=C1Nc2ccccc2C1=O [isatin]
[3]
  Ki: 18 ± 4 µM
